From US8431577B2, “Crystalline form of eszopiclone, composition, preparation and uses thereof” (Tianjin Tasly Group Co., Ltd., priority 2008, dated 2013)

Experiments:
[1] = Crystal transformation under the stability tests (X-ray diffraction); assay type: physicochemical; details: under all stability tests (60° C., RH 92.5%, strong light, accelerated, long-term)
[2] = High humidity (25° C., RH 92.5%) stability test; assay type: physicochemical; details: for Content (%) / Related substances (%) Levozopiclone / Related substances (%) Other impurities: High humidity (92.5%), 25° C.; for Weight gain: high humidity 25° C., RH 92.5%
Method: The crystalline form of S-zopiclone of the present invention was introduced into an open and colorless transparent weighing-bottle batch by batch, and placed in a closed vessel (KNO3 saturated solution, RH: 92.5%) for 10 days. The specimens were sampled on the 5th and 10th day respectively to measure their stability in accordance with the key stability-relevant items. Meanwhile, the weight of the tested drug pre-and post test was measured accurately.

[3] = Pharmacokinetic study pre and post eating in healthy volunteers; assay type: in vivo, human; details: single oral
Method: In addition, the effect of eating food on in vivo metabolism of the drug had been evaluated. 8 subjects were randomly divided into 2 groups. In 2 tests, the subjects of each group received the drug at the same dose (6 mg) in the cases of fasting and 5 minutes after taking standard diet. The interval between two tests was 2 weeks.
(§1) After a single oral administration of the tested drug, 6 ml anticoagulant heparin venous blood samples were collected at 0th (immediately before administration), 15th minute, 30th minute, 45th minute, 60th minute, 1.5th hour, 2nd hour, 3rd hour, 4th hour, 6th hour, 8th hour, 12th hour, 16th hour and 24th hour respectively to determine the concentration of S-zopiclone. By HPLC, the plasma drug concentration of each subject had been determined at different time-points to give a concentration-time curve. The main pharmacokinetic parameters of the subjects had been calculated, including AUC, Cmax, Tmax, AUC0˜α, AUC0-t and t1/2, etc.
(§2) The crystalline form of S-zopiclone was prepared into coated tablets (3 mg S-zopiclone/tablet) in accordance with Example 1 and Example 9, single orally administrated.
(§3) Pharmacokinetic indices: the plasma drug concentration had been determined immediately before administration and at different time-points after administration of the drug to give a concentration-time curve. The main pharmacokinetic parameters had been calculated, including Cmax, Tmax, AUC0˜α, AUC0-t and t1/2, etc.
(§4) Pharmacokinetic: 3P97 statistical analysis software had been applied to calculate the main pharmacokinetic parameters.

[4] = Safety after single oral administration in healthy volunteers; assay type: in vivo, human
Method: Safety indices: a series of indices were measured when conducting screening and 24 hours after administration, including vital signs, physical examination, ECG and laboratory test. During the test, adverse event was recorded on time.
Safety: meaningful clinical safety indices are tabulated according to the type and the frequency thereof.
Bitter taste in mouth was reported as severe adverse reaction by a majority of subjects (25%˜40%), and another adverse reaction was dizziness and headache. […] Two subjects in the group of the dose of 12 mg/kg BW experienced the state of delirium, including talkativeness, hyperactivity and unconsciousness. […] Within 12 hours after administration, all adverse reactions disappeared without special treatment.

[5] = Accelerated stability test; details: 40±2° C., RH 75±5%
Method: The crystalline form of S-zopiclone was packaged in packages simulated the commercial ones, and placed in a thermostat container (temperature: 40±2° C., RH:75±5%) for 6 months. The specimens were sampled on the 1st, 2nd, 3rd and 6th month respectively to measure their stability in accordance with the key stability-relevant items.

[6] = Pharmacokinetic study of single oral administration in healthy volunteers; assay type: in vivo, human
Method: Evaluation of pharmacokinetics: according to the results of phase I clinical tolerance trial and the pre-designed therapeutic dose of phase II clinical trial, a high dose of 11. 25 mg/kg BW (body weight) can be tolerated by all volunteers in tolerance test, three different dose groups had been set as follows: low dose group, moderate dose group and high dose group were 3, 6 and 12 mg/kg BW, respectively. Three-way crossover Latin square design was used. All subjects were randomly divided into 3 test groups, and the tested drug at different doses was administrated to the subjects when performing each test. Thus, after 3 tests, each subject had been administrated with the testing drug at high, moderate and low dose by following the Latin square design procedure. The interval between two tests was 2 weeks.
as §1, §2, §3, §4

[7] = High temperature (60° C.) stability test; details: for Content (%) / Related substances (%) Levozopiclone / Related substances (%) Other impurities: High temperature (60° C.)
Method: The crystalline form of S-zopiclone of the present invention was introduced into an open and colorless transparent weighing-bottle batch by batch, and placed in a thermostat container (60° C.) for 10 days. The specimens were sampled on the 5th and 10th day respectively to measure their stability in accordance with the key stability-relevant items.

[8] = 6 mg (eating), 5 minutes after standard diet
[9] = 3 mg single oral administration
[10] = 6 mg single oral administration
[11] = 12 mg single oral administration

SMILES: CN1CCN(C(=O)O[C@H]2c3nccnc3C(=O)N2c2ccc(Cl)cn2)CC1 [crystalline form of S-zopiclone, (+)-(S)-(4-methylpiperazine-1-carboxylate)(6-(5-chloropyridinyl-2-yl)-7-carbonyl-6,7-dihydro-5-H-pyrrolo[3,4-b]pyrazin-5-yl ester)]
- phenomenon of crystal transformation [1]: had not been observed
- Content (%) ([2]; day 0): 100.06%
- Related substances (%) Levozopiclone ([2]; day 0): 0.06%
- Related substances (%) Other impurities ([2]; day 0): 0.09%
- Content (%) ([2]; day 5): 99.86%
- Related substances (%) Levozopiclone ([2]; day 5): 0.08%
- Related substances (%) Other impurities ([2]; day 5): 0.11%
- Content (%) ([2]; day 10): 99.91%
- Related substances (%) Levozopiclone ([2]; day 10): 0.07%
- Related substances (%) Other impurities ([2]; day 10): 0.11%
- Weight gain ([2]; 5th day): 0.07%
- Weight gain ([2]; 10th day): 0.08%
- AUC0-∞ [3, 8]: 284.00 ± 88.36 µg/h/L
- Cmax [3, 8]: 62.60 ± 18.95 ng/mL
- Tmax [3, 8]: 1.75 ± 0.89 h
- plasma clearance [3, 8]: 21.4 ± 7.4 L/h
- t1/2 [3, 8]: 6.75 ± 1.49 h
- AUC0-∞ ([3]; 6 mg (fasting)): 335.73 ± 145.57 µg/h/L
- Cmax ([3]; 6 mg (fasting)): 60.69 ± 11.43 ng/mL
- Tmax ([3]; 6 mg (fasting)): 1.31 ± 0.44 h
- plasma clearance ([3]; 6 mg (fasting)): 16.00 ± 3.3 L/h
- t1/2 ([3]; 6 mg (fasting)): 7.17 ± 2.69 h
- subjects experiencing the state of delirium (talkativeness, hyperactivity, unconsciousness) ([4]; 12 mg dose group): Two subjects
- types and frequencies of adverse reactions versus low and moderate dose groups ([4]; high dose group (12 mg)): more types and higher frequencies of adverse reactions
- time after administration within which all adverse reactions disappeared ([4]; without special treatment): ≤ 12 h
- stability (character, melting point, related substances versus 0th day) ([5]; 6 months of accelerated test): remained stable
- Content (%) ([5]; month 0): 100.06%
- Related substances (%) Levozopiclone ([5]; month 0): 0.06%
- Related substances (%) Other impurities ([5]; month 0): 0.09%
- Content (%) ([5]; month 1): 100.13%
- Related substances (%) Levozopiclone ([5]; month 1): 0.07%
- Related substances (%) Other impurities ([5]; month 1): 0.10%
- Content (%) ([5]; month 2): 100.02%
- Related substances (%) Levozopiclone ([5]; month 2): 0.07%
- Related substances (%) Other impurities ([5]; month 2): 0.12%
- Content (%) ([5]; month 3): 99.91%
- Related substances (%) Levozopiclone ([5]; month 3): 0.05%
- Related substances (%) Other impurities ([5]; month 3): 0.12%
- Content (%) ([5]; month 6): 99.73%
- Related substances (%) Levozopiclone ([5]; month 6): 0.06%
- Related substances (%) Other impurities ([5]; month 6): 0.09%
- AUC0-∞ [6, 9]: 259.66 ± 92.58 µg/h/L
- Cmax [6, 9]: 33.96 ± 8.63 ng/mL
- Tmax [6, 9]: 1.50 ± 0.66 h
- plasma clearance [6, 9]: 14.10 ± 4.5 L/h
- t1/2 [6, 9]: 6.98 ± 0.99 h
- AUC0-∞ [6, 10]: 404.21 ± 73.32 µg/h/L
- Cmax [6, 10]: 60.94 ± 11.44 ng/mL
- Tmax [6, 10]: 1.28 ± 0.43 h
- plasma clearance [6, 10]: 15.80 ± 3.0 L/h
- t1/2 [6, 10]: 8.20 ± 6.14 h
- AUC0-∞ [6, 11]: 1291.26 ± 426.68 µg/h/L
- Cmax [6, 11]: 182.72 ± 67.44 ng/mL
- Tmax [6, 11]: 1.58 ± 0.40 h
- plasma clearance [6, 11]: 10.90 ± 5.00 L/h
- t1/2 [6, 11]: 8.06 ± 2.82 h
- stability (character, melting point, related substances versus 0th day) ([7]; 10 days of high-temperature (60° C.)): stable
- Content (%) ([7]; day 0): 100.06%
- Related substances (%) Levozopiclone ([7]; day 0): 0.06%
- Related substances (%) Other impurities ([7]; day 0): 0.09%
- Content (%) ([7]; day 5): 100.01%
- Related substances (%) Levozopiclone ([7]; day 5): 0.08%
- Related substances (%) Other impurities ([7]; day 5): 0.11%
- Content (%) ([7]; day 10): 100.12%
- Related substances (%) Levozopiclone ([7]; day 10): 0.07%
- Related substances (%) Other impurities ([7]; day 10): 0.12%
